Source: patent publication US20090117083A1, “IMMUNOMODULATORY ALKALOIDS” (M N L PHARMA LIMITED, priority 2004, published 2009)
Read-outs that look alike come from different tables or passages of the source.

Columns and labels:
[1] = test system: Na^+-dependent D-glucose uptake; test: Na+-dependent D-glucose uptake into intestinal brush border membrane vesicles; assay type: biochemical, ovine
Naringinase = test: Glycosidase inhibition: Naringinase; assay type: biochemical, Penecillium decumbens; details: 1 mg/ml
Procedure: (§1) All enzymes were purchased from Sigma, as were the appropriate p-nitrophenyl substrates. Assays were carried out in microtitre plates. Enzymes were assayed in 0.1M citric acid/0.2M di-sodium hydrogen phosphate (McIlvaine) buffers at the optimum pH for the enzyme. All assays were carried out at 20° C. For screening assays the incubation assay consisted of 10 μl of enzyme solution, 10 μl of inhibitor solution (made up in water) and 50 μl of the appropriate 5 mM p-nitrophenyl substrate (3.57 mM final conc.) made up in McIlvaine buffer at the optimum pH for the enzyme.
(§2) The reactions were stopped with 0.4M glycine (pH 10.4) during the exponential phase of the reaction, which was determined at the beginning of the assay using blanks with water, which were incubated for a range of time periods to measure the reaction rate using 5 mM substrate solution. Endpoint absorbances were read at 405 nm with a Biorad microtitre plate reader (Benchmark). Water was substituted for the inhibitors in the blanks.

α-D-mannosidase = biological target: T1, α-D-mannosidase (Canavalia ensiformis, UniProt C0HJB3); test: Glycosidase inhibition: α-D-mannosidase; assay type: biochemical, Jack beans (Canavalia ensiformis)
T1 construct: purchased Sigma
T1 sequence (C0HJB3 whole entry): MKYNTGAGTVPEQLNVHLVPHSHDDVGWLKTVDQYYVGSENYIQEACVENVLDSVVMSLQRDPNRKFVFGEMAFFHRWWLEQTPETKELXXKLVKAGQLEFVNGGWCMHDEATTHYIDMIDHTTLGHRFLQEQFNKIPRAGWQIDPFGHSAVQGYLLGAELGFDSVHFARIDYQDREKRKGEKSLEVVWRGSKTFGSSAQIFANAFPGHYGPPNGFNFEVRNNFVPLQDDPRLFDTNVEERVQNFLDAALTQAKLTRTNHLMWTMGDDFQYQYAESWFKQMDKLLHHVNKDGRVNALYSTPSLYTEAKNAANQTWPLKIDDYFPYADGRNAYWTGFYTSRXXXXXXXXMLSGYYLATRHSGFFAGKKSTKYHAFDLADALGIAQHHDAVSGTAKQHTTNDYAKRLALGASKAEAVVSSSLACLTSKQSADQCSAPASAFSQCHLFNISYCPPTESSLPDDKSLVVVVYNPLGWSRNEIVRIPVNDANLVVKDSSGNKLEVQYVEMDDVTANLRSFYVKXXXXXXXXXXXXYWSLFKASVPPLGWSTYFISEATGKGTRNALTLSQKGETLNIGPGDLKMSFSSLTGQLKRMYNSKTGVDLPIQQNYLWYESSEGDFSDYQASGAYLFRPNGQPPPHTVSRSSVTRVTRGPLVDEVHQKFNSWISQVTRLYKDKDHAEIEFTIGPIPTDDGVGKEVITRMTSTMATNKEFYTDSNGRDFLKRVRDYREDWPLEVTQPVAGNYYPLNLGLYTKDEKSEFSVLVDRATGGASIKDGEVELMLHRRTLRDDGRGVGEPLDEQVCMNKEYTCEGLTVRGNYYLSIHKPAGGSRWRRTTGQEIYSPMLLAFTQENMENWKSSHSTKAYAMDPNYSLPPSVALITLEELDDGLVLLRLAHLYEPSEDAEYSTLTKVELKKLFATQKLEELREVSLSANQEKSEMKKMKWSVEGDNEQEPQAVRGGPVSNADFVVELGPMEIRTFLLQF
Procedure: All enzymes were purchased from Sigma, as were the appropriate p-nitrophenyl substrates. Assays were carried out in microtitre plates. Enzymes were assayed in 0.1M citric acid/0.2M di-sodium hydrogen phosphate (McIlvaine) buffers at the optimum pH for the enzyme. All assays were carried out at 20° C.
Endpoint absorbances were read at 405 nm with a Biorad microtitre plate reader (Benchmark). Water was substituted for the inhibitors in the blanks.

[2] = biological target: T2, rabbit small intestine sucrase (Oryctolagus cuniculus, UniProt P07768); test: Inhibition of rabbit small intestine sucrase; assay type: biochemical; details: 700 μM
T2 construct: from tissue; host or cells: rabbit small intestine

[3] = test system: N-acetyl-β-D-glucosaminidase; test: Glycosidase inhibition: N-acetyl-β-D-glucosaminidase; assay type: biochemical, Bovine; details: 1 mg/ml
Procedure: as §1, §2

α-D-glucosidase [4] = test: Glycosidase inhibition: α-D-glucosidase, Bacillus; assay type: biochemical, Bacillus stearothermophilus; details: 1 mg/ml
Procedure: as §1, §2

β-D-galactosidase = test: Glycosidase inhibition: β-D-galactosidase; assay type: biochemical, Bovine; details: 1 mg/ml
Procedure: as §1, §2

α-D-galactosidase = biological target: T3, α-D-galactosidase (Coffea arabica, UniProt Q42656); test: Glycosidase inhibition: α-D-galactosidase; assay type: biochemical, Green coffee beans (Coffea sp.); details: 1 mg/ml
T3 construct: purchased Sigma
T3 sequence (Q42656 16-378): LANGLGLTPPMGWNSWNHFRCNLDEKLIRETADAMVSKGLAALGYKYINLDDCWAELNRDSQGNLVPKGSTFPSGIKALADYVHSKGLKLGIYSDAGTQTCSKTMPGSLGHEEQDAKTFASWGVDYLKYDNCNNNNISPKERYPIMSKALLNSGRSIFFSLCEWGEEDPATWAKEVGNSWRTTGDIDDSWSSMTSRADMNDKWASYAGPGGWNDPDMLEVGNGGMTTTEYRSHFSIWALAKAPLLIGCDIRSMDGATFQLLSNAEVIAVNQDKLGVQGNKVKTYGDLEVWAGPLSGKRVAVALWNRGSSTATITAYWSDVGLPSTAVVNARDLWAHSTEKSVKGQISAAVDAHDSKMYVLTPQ
Procedure: as §1, §2

α-D-glucosidase [5] = biological target: T4, α-D-glucosidase (Oryza sativa subsp. japonica, UniProt Q653V7); test: Glycosidase inhibition: α-D-glucosidase, rice; assay type: biochemical, rice (Oryza sativa); details: 1 mg/ml
T4 construct: purchased Sigma
T4 sequence (Q653V7 34-885): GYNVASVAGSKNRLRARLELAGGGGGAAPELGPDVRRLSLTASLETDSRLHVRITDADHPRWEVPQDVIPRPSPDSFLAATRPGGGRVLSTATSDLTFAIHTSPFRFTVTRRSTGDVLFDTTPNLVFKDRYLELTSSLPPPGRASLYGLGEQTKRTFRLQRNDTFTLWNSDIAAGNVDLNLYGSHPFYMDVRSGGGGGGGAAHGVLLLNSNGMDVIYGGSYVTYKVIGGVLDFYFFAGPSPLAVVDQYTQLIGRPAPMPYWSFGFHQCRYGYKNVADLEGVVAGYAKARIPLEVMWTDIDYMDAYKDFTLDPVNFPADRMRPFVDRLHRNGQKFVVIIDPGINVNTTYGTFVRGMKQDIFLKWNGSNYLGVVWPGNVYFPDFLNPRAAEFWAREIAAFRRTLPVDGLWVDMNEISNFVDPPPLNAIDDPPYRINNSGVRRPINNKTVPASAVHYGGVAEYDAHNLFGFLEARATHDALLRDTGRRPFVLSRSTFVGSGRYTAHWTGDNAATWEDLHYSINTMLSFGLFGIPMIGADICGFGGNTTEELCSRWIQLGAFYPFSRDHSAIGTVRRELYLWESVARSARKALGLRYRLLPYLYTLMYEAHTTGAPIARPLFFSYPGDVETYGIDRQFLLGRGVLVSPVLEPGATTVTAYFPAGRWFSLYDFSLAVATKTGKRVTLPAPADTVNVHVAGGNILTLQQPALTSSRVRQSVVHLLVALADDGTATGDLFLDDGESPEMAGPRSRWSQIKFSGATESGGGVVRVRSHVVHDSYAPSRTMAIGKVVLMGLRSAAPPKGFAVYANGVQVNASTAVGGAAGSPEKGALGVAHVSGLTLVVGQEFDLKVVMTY
Procedure: as §1, §2

[6] = biological target: T5, rabbit small intestine trehalase (Oryctolagus cuniculus, UniProt P19813); test: Inhibition of rabbit small intestine trehalase; assay type: biochemical
T5 construct: from tissue; host or cells: rabbit small intestine
T5 sequence (P19813 20-555): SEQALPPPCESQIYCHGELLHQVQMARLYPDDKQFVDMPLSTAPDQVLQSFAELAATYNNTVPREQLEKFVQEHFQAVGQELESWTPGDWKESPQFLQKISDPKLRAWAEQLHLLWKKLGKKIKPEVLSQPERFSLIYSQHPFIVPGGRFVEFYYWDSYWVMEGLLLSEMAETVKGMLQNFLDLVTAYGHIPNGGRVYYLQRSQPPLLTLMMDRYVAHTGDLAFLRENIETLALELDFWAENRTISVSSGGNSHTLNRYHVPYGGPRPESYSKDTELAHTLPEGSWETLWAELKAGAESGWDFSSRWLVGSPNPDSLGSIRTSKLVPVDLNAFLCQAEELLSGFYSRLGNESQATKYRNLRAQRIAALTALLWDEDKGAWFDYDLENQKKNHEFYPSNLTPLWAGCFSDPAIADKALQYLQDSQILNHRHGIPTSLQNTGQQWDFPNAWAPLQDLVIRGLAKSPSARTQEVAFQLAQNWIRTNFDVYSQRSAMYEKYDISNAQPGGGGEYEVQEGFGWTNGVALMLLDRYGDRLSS

α-D-glucosidase [7] = biological target: T6, α-D-glucosidase (Saccharomyces cerevisiae, UniProt P53341); test: Glycosidase inhibition (p-nitrophenyl substrate): α-D-glucosidase, yeast; assay type: biochemical, Saccharomyces cerevisiae (Baker's yeast); details: for inhibition at 1000 µg/mL: 1 mg/ml
T6 construct: purchased Sigma
T6 sequence (P53341 whole entry): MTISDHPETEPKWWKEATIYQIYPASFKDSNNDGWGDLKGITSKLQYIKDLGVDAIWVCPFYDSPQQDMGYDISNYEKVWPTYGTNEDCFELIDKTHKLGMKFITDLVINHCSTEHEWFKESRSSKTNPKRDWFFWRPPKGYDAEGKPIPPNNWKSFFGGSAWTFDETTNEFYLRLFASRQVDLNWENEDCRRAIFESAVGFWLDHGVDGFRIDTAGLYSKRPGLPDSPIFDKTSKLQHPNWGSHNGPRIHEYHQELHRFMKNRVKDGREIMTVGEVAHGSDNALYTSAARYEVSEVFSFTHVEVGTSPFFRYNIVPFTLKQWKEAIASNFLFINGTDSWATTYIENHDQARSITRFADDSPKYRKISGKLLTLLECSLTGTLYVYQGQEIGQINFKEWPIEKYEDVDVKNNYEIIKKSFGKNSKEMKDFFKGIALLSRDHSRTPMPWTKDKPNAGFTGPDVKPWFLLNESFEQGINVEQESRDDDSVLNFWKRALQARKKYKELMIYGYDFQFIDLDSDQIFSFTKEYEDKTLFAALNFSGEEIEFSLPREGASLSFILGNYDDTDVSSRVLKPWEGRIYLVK
Procedure: as §1, §2

spleen cells = test: Cytokine modulation in spleen cells (IFN-γ); assay type: cell-based, BALB/c mice; details: for IFN-γ: Table 3.2
Procedure: BALB/c male and female mice bred and maintained at the University of Strathclyde under conventional conditions were used at varying age.
Cells suspensions were prepared by using the end of a syringe and grinding the spleen through a wire mesh. The cell suspension was then centrifuged at 1000 rpm for 5 minutes. To remove the erythrocytes, the cell pellet was resuspended in Boyle's solution (Tris 0.17M & Ammonium Chloride 0.16M) and centrifuged again for 5 minutes. The pellet was then washed in medium a further two times, then resuspended in 3 mls medium. A cell count was then carried out.
All spleen cell experiments were carried out in 96-well tissue culture plates. […] Unstimulated wells contained 100 μl of cells and 100 μl of medium. The stimulated wells contained 100 μl of cells plus 50 μl of LPS at 1 μg/ml or 50 μl anti-CD3 at 0.5 μg/ml and 50 μl of medium. The remaining wells contained 100 μl cells, 5 μl of MNLP compound and either 50 μl of anti-CD3 or medium alone.
The appropriate Mabs and standards were used according to the protocol described for IL-12 (described in Example 1, above).

[8] = biological target: rabbit gut mucosa α-D-glucosidase; test: Inhibition of rabbit gut mucosa α-D-glucosidase; assay type: biochemical
[9] = biological target: T7, rabbit small intestine lactase (Oryctolagus cuniculus, UniProt P09849); test: Inhibition of rabbit small intestine lactase; assay type: biochemical
T7 construct: from tissue; host or cells: rabbit small intestine
T7 sequence (P09849 867-1926): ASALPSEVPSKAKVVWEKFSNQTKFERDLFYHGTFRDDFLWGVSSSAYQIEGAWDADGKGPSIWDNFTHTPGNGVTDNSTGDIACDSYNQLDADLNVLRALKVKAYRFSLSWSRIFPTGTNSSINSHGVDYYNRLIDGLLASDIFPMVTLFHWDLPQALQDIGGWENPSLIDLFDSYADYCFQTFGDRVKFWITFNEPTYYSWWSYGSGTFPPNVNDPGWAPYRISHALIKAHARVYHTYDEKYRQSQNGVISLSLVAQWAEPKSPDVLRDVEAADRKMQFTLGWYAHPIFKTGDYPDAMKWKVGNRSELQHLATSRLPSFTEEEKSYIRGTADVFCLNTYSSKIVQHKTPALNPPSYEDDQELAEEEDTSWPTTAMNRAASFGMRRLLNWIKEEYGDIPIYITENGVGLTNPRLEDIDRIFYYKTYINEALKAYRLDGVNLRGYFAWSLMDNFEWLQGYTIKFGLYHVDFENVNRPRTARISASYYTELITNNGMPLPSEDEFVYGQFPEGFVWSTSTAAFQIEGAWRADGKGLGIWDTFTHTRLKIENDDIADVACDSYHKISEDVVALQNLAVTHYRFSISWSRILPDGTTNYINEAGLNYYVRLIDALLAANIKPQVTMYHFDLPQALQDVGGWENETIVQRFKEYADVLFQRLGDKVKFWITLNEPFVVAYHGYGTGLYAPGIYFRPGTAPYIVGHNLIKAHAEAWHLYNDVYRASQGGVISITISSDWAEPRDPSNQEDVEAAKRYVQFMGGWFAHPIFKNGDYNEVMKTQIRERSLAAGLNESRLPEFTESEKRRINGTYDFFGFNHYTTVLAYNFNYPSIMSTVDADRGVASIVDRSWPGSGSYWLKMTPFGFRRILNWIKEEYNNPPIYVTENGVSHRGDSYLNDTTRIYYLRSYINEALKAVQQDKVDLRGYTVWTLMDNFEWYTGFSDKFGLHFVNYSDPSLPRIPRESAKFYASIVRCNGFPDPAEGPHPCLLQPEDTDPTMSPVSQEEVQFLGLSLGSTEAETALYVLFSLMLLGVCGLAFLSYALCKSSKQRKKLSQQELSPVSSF

β-D-glucosidase = test: Glycosidase inhibition: β-D-glucosidase, almond; assay type: biochemical, Almonds (Prunus sp.)
Procedure: as §1, §2

α-L-fucosidase = biological target: T8, α-L-fucosidase (Bos taurus, UniProt Q2KIM0); test: Glycosidase inhibition: α-L-fucosidase; assay type: biochemical, Bovine; details: 1 mg/ml
T8 construct: purchased Sigma
T8 sequence (Q2KIM0 23-468): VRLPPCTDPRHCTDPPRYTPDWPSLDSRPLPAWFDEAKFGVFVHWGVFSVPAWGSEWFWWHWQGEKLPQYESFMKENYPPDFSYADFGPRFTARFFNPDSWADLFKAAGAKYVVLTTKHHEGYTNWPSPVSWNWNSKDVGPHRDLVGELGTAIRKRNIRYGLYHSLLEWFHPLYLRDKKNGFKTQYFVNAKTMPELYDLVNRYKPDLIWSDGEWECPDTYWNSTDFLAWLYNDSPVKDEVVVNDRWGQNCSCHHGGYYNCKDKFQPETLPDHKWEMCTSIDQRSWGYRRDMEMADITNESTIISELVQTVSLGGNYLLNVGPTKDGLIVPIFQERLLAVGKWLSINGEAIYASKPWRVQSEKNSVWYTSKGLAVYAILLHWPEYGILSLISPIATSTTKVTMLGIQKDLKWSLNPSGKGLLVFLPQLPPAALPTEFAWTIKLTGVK
Procedure: as §1, §2

B16-F10 tumour cells = test: Control of lung metastasis in mice (B16-F10); assay type: in vivo, C57/bl6 mice; details: 50 mg/kg s/c on days 2 and 4; lungs on day 14
Procedure: Mice (C57/bl6 under i/p ketamine anaesthesia) were challenged i/v (tail vein) with 5×10^4 B16-F10 tumour cells in a final volume of 100 μl per mouse on day 0. Test compounds (50 mg/kg in 200 μl sterile non-pyrogenic saline) were administered sic (right flank) on days 2 and 4. On day 14 the mice were sacrifices and the lungs dissected and stained in Indian ink solution (150 ml bidistilled water, 30 ml India Ink, 4 drops NH4OH) for 10 minutes then fixed for at least 24 hr in Fakete's solution (90 ml 37% formaldehyde, 900 ml 70% EtOH and 45 ml glacial acetic acid). The metastases in the stained and fixed lungs could then be visualized, counted and photographed.

dendritic cells = test: Induction of IL-12 secretion in dendritic cells (ELISA); assay type: cell-based, BALB/c mice; details: 50 μg/ml
B16G/F10 melanoma cells = test: B16/F10 melanoma lung colonies in mice; assay type: in vivo, C57BL/6 mice
Procedure: There were 5 treatment groups in the study, with 6 mice arbitrarily allocated to each group. The treatment groups were as follows:
The dose volume was the daily intake for all animals. Test substances were administered to mice in Groups 2, 3, 4 and 5, as solutions in sterile water for 41 h 32 min prior to tumour cell injection (Day 0 is the day of tumour cell injection).
Mice were injected intravenously, via a tail vein, with 0.1 ml of a suspension of B16G/F10 melanoma cells (approximately 1×10^5 cells/mouse) on Day 0.
All dosing solutions were prepared on the first day of dosing (Day −2) and were kept at room temperature.
Mice: Female C57BL/6 mice were supplied and delivered by Charles River UK Limited. The animals were approximately 6-8 weeks of age on arrival. The animals were acclimatized for 29 days prior to the start of the study, and the body weights at the start of dosing were in the range 18-23 g. During the study, the animals were housed in groups of up to 6 in pediatric filter-topped cages with sawdust bedding (autoclaved for sterility). The room and cages were cleaned at regular intervals each week to maintain hygiene. The mice were fed an expanded rodent diet of RM1(E) SQC (batch number 3822; Special Diets Services, Witham, UK) ad libitum and allowed access to sterilized water (N.V. Nutricia, Zoetermeer, The Netherlands). For Groups 2, 3, 4 and 5, the drinking water also contained the appropriate level of test substance for the duration of the dosing period. […] During the acclimatization and study period the temperature range in the rooms was 18-22° C. and the humidity range was 44-79%.
Tumour challenge: B18F10 murine tumour cells (Shrayer D, Bogaars H. Hearing V. J. Maizel A. & Wanebo H. Further characterization of a clinically relevant model of melanoma metastasis and an effective vaccine. Cancer Immunology, Immunotherapy 1995: 40; 277-282) were harvested from sub-confluent cultures growing in vitro, using minimum trypsination. They were washed in sterile phosphate buffered saline (PBS) and the number of viable cells determined. Cells were resuspended in sterile PBS at a concentration of […]. The mice were intravenously injected, via a tail vein, with 0.1 ml of cell suspension (i.e. approximately 1×10^5 cells/mouse) on Day 0. The mice were examined daily for signs of laboured breathing or distress due to extensive metastatic disease. Mice were exposed to the appropriate test substance for 41 h 32 min prior to tumour cell injection (from Day −2 to Day 0). Following tumour cell implant, the test substances were removed, and animals in all groups received drinking water alone for the remainder of the study.
Sampling and analysis: The animals were terminated on Day 21 (21 days after injection of the tumour cells). Blood samples were taken from 3 mice from each group on the day of termination. Animals were anaesthetized with carbon dioxide and blood samples of maximal volume taken by cardiac puncture and collected in plain tubes. Samples were left to clot at room temperature for a minimum of 1 h prior to serum removal, Serum samples were stored at approximately −70° C. prior to analysis. Immediately after performing the bleeds, the spleens were removed from the 3 selected mice. The spleens from these mice were pooled in a petri dish with approximately 3-5 ml of RPMI 1640 tissue culture medium (batch number 3092202; Invitrogen, Paisley, UK) containing 0.52% penicillin/streptomycin (Pen/Strep; batch number 44K2412; Sigma Aldrich, Poole, UK) prior to splenocyte isolation. The spleens from each group were placed in a glass homogeniser with an additional 10-15 ml of medium and homogenised until opaque. The suspension was then placed in a 50 ml centrifuge tube. On occasions when there was significant cell debris, this was allowed to settle before removing the suspension and placing in a fresh tube. The homogenate was then centrifuged at approximately 200×‘g’ for 5 min at approximately 4° C.

[10] = read-out: % inhibition, mannosidase

Compound: O[C@H]1[C@H](O)[C@@H](O)CN2CC[C@H](O)[C@H]12 [Castanospermine (20), Castanospermine, reference compound]
- Glucose uptake ([1]; initial rate, competition with labelled D-glucose, control 240): 225 pmol/s/mg
- glucose transport, effect ([1]; versus control): slightly inhibited
- % inhibition, Naringinase (Naringinase): 39%
- inhibition at 1000 µg/mL (α-D-mannosidase; [10]): 9%
- inhibition of rabbit small intestine sucrase [2]: inhibited
- % inhibition, N-acetyl-β-gluc [3]: 16%
- % inhibition, gluc (Bacillus) (α-D-glucosidase [4]): 6%
- % inhibition, galactosidase (β-D-galactosidase; second galactosidase line): 16%
- inhibition at 1000 µg/mL (α-D-galactosidase; first galactosidase line, read-out: % inhibition, galactosidase): -3%
- inhibition at 1000 µg/mL (α-D-glucosidase [5]; read-out: % inhibition, gluc (rice)): 77%
- inhibition at 700 µM [6]: > 50%
- inhibition of yeast α-D-glucosidase (α-D-glucosidase [7]; 800 μM): not being inhibitory
- inhibition at 1000 µg/mL (α-D-glucosidase [7]; read-out: % inhibition, gluc (yeast)): -8%
- IFN-γ secretion/production in splenocytes (spleen cells): inhibits
- IFN-γ (spleen cells; + αCD3): 9.0 ng/mL
- IFN-γ (spleen cells; treatment alone): <1.0 ng/mL
- IC50 [8]: 8 µM
- inhibition at 700 µM [9]: > 50%
- Ki (β-D-glucosidase): 9 µM
- % inhibition, glucosidase (β-D-glucosidase; 1 mg/ml): 88%
- inhibition at 1000 µg/mL (α-L-fucosidase; read-out: % inhibition, fucosidase): 3%

Compound: OCCN1[C@H](CO)[C@@H](O)[C@H](O)[C@H]1CO [N-hydroxyethyl DMDP, N-hydroxyethyl-2,5-dihydroxymethyl-3,4-dihydroxypyrrolidine]
- % inhibition, Naringinase (Naringinase): 22%
- inhibition at 1000 µg/mL (α-D-mannosidase; read-out: % inhibition, α-mannosidase): 11%
- % inhibition, N-acetyl-β-gluc [3]: 13%
- % inhibition, α-gluc (Bacillus) (α-D-glucosidase [4]): 85%
- % inhibition, β-galactosidase (β-D-galactosidase): 73%
- inhibition at 1000 µg/mL (α-D-galactosidase; read-out: % inhibition, α-galactosidase): 7%
- inhibition at 1000 µg/mL (α-D-glucosidase [5]; read-out: % inhibition, α-gluc (rice)): 43%
- inhibition at 1000 µg/mL (α-D-glucosidase [7]; read-out: % inhibition, α-gluc (yeast)): 56%
- Metastatic morphology (B16-F10 tumour cells): Metastasis restricted to apical tip of lung
- % inhibition, β-glucosidase (β-D-glucosidase; 1 mg/ml): 64%
- inhibition at 1000 µg/mL (α-L-fucosidase; read-out: % inhibition, α-fucosidase): -4%

Compound: O[C@H]1[C@H]2[C@H](O)CCCN2C[C@H]1O [Swainsonine (4), Swainsonine, reference compound]
- inhibition at 1000 µg/mL (α-D-mannosidase; [10]): 74%
- induction of IL-12 secretion (dendritic cells): failed to induce IL-12 secretion
- Colony Count (B16G/F10 melanoma cells; 3 μg/ml in drinking water before tumour cell injection, Day 21, mean ± s.e.m.): 21.33 ± 4.11
- % Reduction (B16G/F10 melanoma cells; 3 μg/ml in drinking water, versus vehicle): 69%
